# According to US11198696B2, “Substituted xanthines as inhibitors of transient receptor potential cation channel subfamily c, member 5 activity” (Boehringer Ingelheim International GmbH, priority 2018, dated 2021):
# Target: T1, TRPC5 (Homo sapiens, UniProt Q9UL62)
# T1 construct: expressed in transfected cells; host or cells: HEK293 TREx cells, inducible TRPC5 expression, induced 20-48 hours
# T1 sequence (Q9UL62 1-973): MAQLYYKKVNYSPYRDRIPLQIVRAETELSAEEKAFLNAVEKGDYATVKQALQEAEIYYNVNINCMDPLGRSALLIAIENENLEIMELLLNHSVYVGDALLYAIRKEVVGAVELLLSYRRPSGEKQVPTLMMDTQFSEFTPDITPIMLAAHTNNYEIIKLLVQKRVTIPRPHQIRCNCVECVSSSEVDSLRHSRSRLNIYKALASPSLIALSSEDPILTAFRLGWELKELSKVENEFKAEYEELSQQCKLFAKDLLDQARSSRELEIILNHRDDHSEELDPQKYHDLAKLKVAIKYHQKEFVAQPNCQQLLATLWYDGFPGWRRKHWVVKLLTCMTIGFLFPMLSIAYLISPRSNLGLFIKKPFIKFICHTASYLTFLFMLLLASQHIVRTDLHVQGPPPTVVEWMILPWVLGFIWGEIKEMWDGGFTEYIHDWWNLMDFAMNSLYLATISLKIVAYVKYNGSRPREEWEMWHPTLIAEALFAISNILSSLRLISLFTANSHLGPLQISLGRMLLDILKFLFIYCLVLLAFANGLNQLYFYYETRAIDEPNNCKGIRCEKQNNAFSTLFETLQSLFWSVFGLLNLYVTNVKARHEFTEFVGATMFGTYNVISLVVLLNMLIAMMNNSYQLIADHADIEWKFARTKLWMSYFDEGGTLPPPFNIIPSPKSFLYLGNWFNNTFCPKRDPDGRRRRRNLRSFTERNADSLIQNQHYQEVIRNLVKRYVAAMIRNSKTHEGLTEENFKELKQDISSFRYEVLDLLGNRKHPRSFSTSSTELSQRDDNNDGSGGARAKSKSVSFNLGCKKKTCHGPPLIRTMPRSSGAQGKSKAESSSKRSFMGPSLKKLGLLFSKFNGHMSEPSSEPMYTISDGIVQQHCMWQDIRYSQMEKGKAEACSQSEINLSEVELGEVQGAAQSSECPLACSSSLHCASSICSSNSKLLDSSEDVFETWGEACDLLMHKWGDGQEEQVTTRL
# Experiment: Assay A: Determination of TRPC5-Inhibition (whole-cell patch clamp)
# Type: cell-based
# Conditions: compounds of the present invention, TRPC5-expressing HEK293 TREx cells, LaCl3-activated current
# Text: Assay A: Determination of TRPC5-Inhibition
# Patch clamp experiments permit the detection of currents through the TRPC5 channel in a cell line. In normal whole-cell patch clamp recordings, a glass electrode is brought into contact with a single cell and a high-resistance (gigaohm) seal is established with the cell membrane. The membrane is then ruptured to achieve the whole-cell configuration, permitting control of the voltage of the cell membrane and measurement of currents flowing across the membrane using the amplifier attached to the electrode and resulting in the replacement of cytoplasm with the pipette solution. A perfusion system permits control of the extracellular solution, including the addition of blockers and activators of the current. The current can be activated by including 1.4 μM free Ca2+ in the pipette (intracellular) solution, and 80 μM LaCl3 in the extracellular solution.
# TRPC5 cells were induced 20-48 hours, removed from growth plates, and replated at low density (to attain good single-cell physical separation) on glass coverslips for measurement. In some cases, cells were grown in low density overnight on glass coverslips. Patch clamp recordings were made in the whole-cell mode with a holding potential of −40 mV. Every 5 seconds, a voltage ramp was applied from −120 to +100 mV, 400 ms in duration. Currents elicited were quantified at −80 mV and +80 mV. The internal solution consisted of 140 mM cesium aspartate, 10 mM HEDTA, 2 mM CaCl2, 2.27 mM MgCl2 and 10 mM HEPES, pH 7.2, with 1,400 nM calculated free Ca2+. The external solution consisted of 150 mM NaCl, 4.5 mM 15 KCl, 1 mM MgCl2, 2 mM CaCl2, 10 mM HEPES, 10 mM glucose, 1 mM EGTA, pH 7.4. Upon addition of LaCl3, TRPC5 current was induced only in TRPC5-expressing cells and not in parental HEK293 TREx cells. Removal of the LaCh stimulus causes most of the current to go away. Potential blockers were tested for ability to block both inward and outward currents in the continued presence of LaCl3.
# IC50 of a compound of the invention was estimated by testing the compound 500 nM. […] Compounds blocking 50% or more at 500 nM are retested at multiple concentrations, and the % block is fitted by standard equations to determine IC50 accurately, using a 5/6 point concentration-response experiment.
row,SMILES,IC50
1,CCn1c(=O)n(CCCO)c(=O)c2c1nc(-c1ccc(OC3CCC3C)nc1)n2Cc1ccccc1 (stereo not shown) [Example 63],3.15 nM
2,CCn1c(=O)n(CCCO)c(=O)c2c1nc(-c1ccc(OC3CCC3)nc1)n2Cc1ccc(F)cc1 [Example 64],2.71 nM
3,CCn1c(=O)n(CCCO)c(=O)c2c1nc(-c1ccc(OC3CC=CC3)nc1C)n2Cc1ccc(F)cc1 [Example 45],0.75 nM
4,CCn1c(=O)n(CCCO)c(=O)c2c1nc(-c1ccc(OC3CCC3)nc1C)n2Cc1ccccc1 [Example 52],1.58 nM
5,CCn1c(=O)n(CCCO)c(=O)c2c1nc(-c1ccc(OC3CCC3)nc1)n2Cc1ccc(SC(F)(F)F)cc1 [Example 46],0.812 nM
6,CCn1c(=O)n(CCCO)c(=O)c2c1nc(-c1ccc(OC3CCC3)nc1)n2Cc1ccc(Cl)cc1 [Example 48],0.873 nM
7,CCn1c(=O)n(CCCO)c(=O)c2c1nc(-c1ccc(OC3C[C@@H]4C[C@@H]4C3)nc1C)n2Cc1ccc(F)cc1 (stereo partly shown) [Example 59],1.73 nM
8,CCn1c(=O)n(CCCO)c(=O)c2c1nc(-c1ccc(OC3CC(F)(F)C3)nc1C)n2Cc1ccc(F)cc1 [Example 47],0.859 nM
9,CCn1c(=O)n(CCCO)c(=O)c2c1nc(-c1ccc(OC3CCC3C)nc1C)n2Cc1ccccc1 (stereo not shown) [Example 60],2.09 nM
10,CCn1c(=O)n(CCCO)c(=O)c2c1nc(-c1ccc(OC3CCC3C)nc1)n2Cc1ccc(F)cc1 (stereo not shown) [Example 51],1.36 nM

# The remaining lines, values ahead:
row,IC50,SMILES
1,0.171 nM,CCn1c(=O)n(CCCO)c(=O)c2c1nc(-c1ccc(OC3CCC3C)nc1C(F)(F)F)n2Cc1ccccc1 (stereo not shown) [Example 12]
2,0.265 nM,Cc1nc(OC2CC=CC2)ccc1-c1nc2c(c(=O)n(CCCO)c(=O)n2C(C)C)n1Cc1ccccc1 [Example 22]
3,0.19 nM,Cc1nc(OC2CCC2)ccc1-c1nc2c(c(=O)n(CCCO)c(=O)n2C2CCC2)n1Cc1ccccc1 [Example 16]
4,0.402 nM,CCn1c(=O)n(CCCO)c(=O)c2c1nc(-c1ccc(O[C@H]3C[C@@H](C)C3)nc1C)n2Cc1ccccc1 [Example 27]
5,0.688 nM,CCn1c(=O)n(CCCO)c(=O)c2c1nc(-c1ccc(OC3CCC3C)nc1C)n2Cc1ccc(F)cc1 (stereo not shown) [Example 41]
6,0.732 nM,Cc1nc(OC2CC(F)(F)C2)ccc1-c1nc2c(c(=O)n(CCCO)c(=O)n2C(C)C)n1Cc1ccccc1 [Example 43]
